Measured values from patent US20090196930A1, “AEROSOLIZED NITRITE AND NITRIC OXIDE -DONATING COMPOUNDS AND USES THEREOF” (Aires Pharmaceuticals, Inc., priority 2007, published 2009).
Like-named read-outs stand apart in the source and are kept apart here.

Columns and labels:
[1] = Protocol: High concentrations permit reduced administration times (important for patient compliance), but suffer in that their associated osmolality and intense taste may mitigate this advantage. […] Nebulized solutions were inhaled to a shallow throat level and analyzed for: taste (saltiness), throat irritation, and sore throat. […] Sodium chloride is also considered in the art as helpful to alleviate cough. Therefore, this was also tested.
Summary. […] Finally, because viscosity and surface tension can be important contributors to optimal I-neb (Respironics, Inc., Murrysville, Pa.), Aerogen Aeroneb Go (Aerogen, Inc., Galway, Ireland) or other vibrating mesh nebulizer performance, potential formulations were screened in these devices to measure the effect of formulation on device output rate and aerosol particle size.

[2] = for VMD: n = 6, mean ± sd
Protocol: It was evaluated in tidal breathing mode (TBM) only.
The output characteristics of the three nebulizers (one of each type) were measured to determine the particle size distribution, inspired dose, residual dose, nebulizer output and duration of nebulization. The nebulizer efficiency, defined as the inhaled fine particle dose as a percent of the total loaded dose, was also determined. Each nebulizer was studied in duplicate, for a total of 6 measures per device type.
Particle Sizing. Nebulizers were weighed dry, full, and at the end of each study to determine gravimetric output and residual volume. Nebulizers were connected to the inhalation cell of the Insitec Laser (Malvern Instruments Ltd, Malvern, Worcestershire, UK) using a flexible airtight connector. The nebulizer and inhalation cell were oriented in a horizontal position. The output end of the inhalation cell was connected to a vacuum generator providing a continuous flow of 20 LPM across the laser beam. For measurements made with the I-neb, the output end of the inhalation cell was connected to a breath simulator, which permitted cyclic particle size measurements using the following breathing pattern: Rate=15 bpm, Volume=500 mL, I.T=2.0 seconds. This is the breathing pattern used for the output studies as well.
Each study was timed from the beginning of nebulization and run for a total of 2 minutes. During the first minute, no measurements were made to allow for equilibration of the solution. Particle sizing was begun and analyzed continuously for the duration of the 2nd minute. All data points were averaged for each measure.
1. VMD: Volume Median Diameter
2. GSD: Geometric Standard Deviation
3. %<3p: The percent of particles <3 microns
4. %<5p: The percent of particles <5 microns
5. Duration: Two minute total cycle time

## O=NO [sodium nitrite]
[1]; 75 mg/mL sodium nitrite, 1.56 mM citric acid, […] sodium saccharin, pH 5.41 admixed dosing solution
  level of nitric oxide produced: ~200 parts per billion
[1]; aqueous sodium nitrite titrated with citric acid
  nitric oxide produced and released: ~200 parts per billion
[1]; citric acid, pH ~5.5, 1:256 molar ratio ascorbic acid to nitrite
  nitric oxide relative to same formulation lacking ascorbic acid: ~4 fold
[1]; nitrite:ascorbic acid 256:1 mixture, Aeroneb Go Lab
  nitric oxide produced and released upon vibrating mesh nebulization: ~800 ppb
[1]; same dosing solution in the absence of citric acid
  level of nitric oxide produced: ~150 parts per billion
[1]; same formulation with ascorbic acid
  level of nitric oxide produced: ~800 parts per billion
[2]; Aeroneb Go
  GSD: 2.1 ± 0.1
  VMD: 4.6 ± 0.1
[2]; I-neb
  GSD: 1.8 ± 0.1
  VMD: 4.8 ± 0.5
[2]; PARI STAR
  GSD: 2.8 ± 0.1
  VMD: 1.7 ± 0.1
Isolated rabbit lungs; 16.7 mg/mL sodium nitrite in phosphate buffer or phosphate/citric acid buffer, 5 min nebulization
  hypoxia-induced elevated PAP: significantly reduced
Isolated rabbit lungs; both sodium nitrite preparations (phosphate buffer; citric acid/phosphate buffer)
  expired nitric oxide compared to control: significantly increased
Isolated rabbit lungs; mg sodium nitrite (2.8 mg nitrite)
  lung-delivered dose up to which lung weights (edema) were stable: up to 4.2 mg
Isolated rabbit lungs; sodium nitrite in phosphate buffer or citric acid/phosphate buffer, nebulized during second hypoxic challenge (3% oxygen), p<0.05
  decrease of PAP compared with pre-drug hypoxic challenge: over 50%
Isolated rabbit lungs; sodium nitrite in phosphate buffer, nebulized during third hypoxic challenge
  half life of effect on hypoxia-induced PAP: ~10 min
